Reference: US7915293B2, “Ubiquitin ligase inhibitors” (Rigel Pharmaceuticals, Inc., priority 2003, dated 2011)

Assays:
Parameters in all cases: key: “+” indicates that the compound exibits inhibitory activity; “−” indicates that low or no inhibitory activity was observed
[1] = molecular target: E3 (His-APC11/APC2-"APC") (Homo sapiens, UniProt Q9NYG5+Q9UJX6); assay: Plate-based E3 ligase assay (APC FLAG), auto-ubiquitination; assay type: biochemical; settings: 8 concentrations tested
Outline: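 His-APC11/APC2 auto-ubiquitination was run in casein-blocked nickel plates for 1 h at room temperature, with E1 at 5 ng/well, UbcH5c at 20 ng/well and APC at 100 ng/well. Buffer was 62.5 mM Tris pH 7.6, 3 mM MgCl2, 1 mM DTT, 2.5 mM ATP and Flag-ubiquitin at 100 ng/well. Detection used anti-Flag/HRP chemiluminescence, and IC50 was typically from 6 or 8 concentrations versus a DMSO control.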

A549 cells [2] = assay: Cell proliferation assay, photographic image analysis of proliferation, apoptosis and death (PAD assay), A549; assay type: cell-based; settings: 6 concentrations tested
Outline: (§1)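 Cells grown in RPMI with 5% FBS (2,000/well) and dosed 24 h after plating with 6.3-fold dilutions in duplicate (master plate 500× final, top 10 mM stock). After 48 h at 37 °C, cells formamide-fixed and DAPI-stained. Image analysis counted live, apoptotic and dead cells.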

HeLa cells [3] = assay: Cell proliferation assay, photographic image analysis of proliferation, apoptosis and death (PAD assay), HeLa; assay type: cell-based; settings: 6 concentrations tested
Outline: as §1

H1299 cells = assay: Cell proliferation assay, photographic image analysis of proliferation, apoptosis and death (PAD assay), H1299; assay type: cell-based; settings: 6 concentrations tested
Experimental: (§2) A549 (ATCC# CCL-185), HeLa (ATCC# CCL-2), HCT116 (ATCC# CCL-247), and H1299 (ATCC# CRL-5803) cells were maintained in T175 flasks following the ATCC recommended media and handling procedures. Flasks reaching approximately 70% confluency were trypsinized and resuspended in RPMI media (Cell-Gro catalog number 10-040-CM) modified to contain 5% FBS, 100 ug/mlPen/Strep (Cell-Gro catalog number 30-002-CL), and 0.3 mg/ml L-Glutamine (Cell-Gro catalog number 25-003-CL). A 20,000 cells/ml solution was made for plating. Cells were plated in black Packard 96 well plates by placing 100 μl per well (2,000 cells per well).
(§3) Compounds and additional media were added 24 hours after cell plating. A compound master plate was created with concentrations 500 times greater than the final concentration added to the cells. All compound testing was done in duplicate using 6.3 fold dilutions starting with 10 mM. All outside wells (and 4 internal wells) were DMSO controls. Taxol and at least one additional control were run on all plates. Three microliters of the compound master plate were added to deep well blocks containing 750 μl of RPMI media. One hundred microliters were transferred from the compound/media deep well blocks to the plated cells resulting in a 500 fold dilution of the compounds. Cells were grown at 37° C., 5% CO2 for 48 hours.
(§4) Cells to be analyzed by photography were fixed and stained. One hundred microliters of media were removed and 100 μl of 9.3% […] was added to each well. Plates were left on the benchtop for 45 minutes. A staining solution containing 1.55 μl of 1 mg/ml DAPI added to 18.75 ml PBS was warmed for 15 minutes at 37° C. The cells were aspirated prior to washing with 100 μl of PBS. Seventy microliters of PBS were aspirated and 170 μl of the DAPI solution were added to each well of fixed cells. Plates were left at room temperature for one hour then aspirated and washed twice with 100 μl of PBS. The stained cells were left at 4° C. for a minimum of 16 hours before photographic analysis with Array Scan II (Cellomics). Analysis of the photographic images to determine numbers of live cells (proliferation), apoptotic cells and dead cells, were according to the methods described in U.S. Provisional Patent Application Ser. No. 60/406,714, which incorporated herein in its entirety.

A549 cells [4] = assay: Non-photographic proliferation analysis (Promega Cell titer Aqueous), A549; assay type: cell-based; settings: 6 concentrations tested
Outline: (§5)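 HeLa, A549 and HCT116 cells, 2,000 per well in RPMI with 5% FBS, were given compounds 24 h after plating as 6.3-fold duplicate dilutions from 10 mM stock, diluted 500-fold into the wells. After 48 h at 37° C, 5% CO2, Cell titer Aqueous reagent was added for 45 min and absorbance read at 490 nm.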

HeLa cells [5] = assay: Non-photographic proliferation analysis (Promega Cell titer Aqueous), HeLa; assay type: cell-based; settings: 6 concentrations tested
Outline: as §5

HCT116 cells [6] = assay: Cell proliferation assay, photographic image analysis of proliferation, apoptosis and death (PAD assay), HCT116; assay type: cell-based; settings: 6 concentrations tested
Experimental: as §2, §3, §4

MDM2 / p53 substrate = MDM2 / p53 substrate (Homo sapiens, UniProt Q00987); assay: Plate-based MDM2 substrate ligation assay (MDM2-P53-FLAG); assay type: biochemical; settings: 8 concentrations tested
Source text: This assay was preformed essentially as described in WO 03/076899 (page 77, line 5 to page 80, line 13), hereby incorporated by reference in its entirety.

HCT116 cells [7] = assay: Non-photographic proliferation analysis (Promega Cell titer Aqueous), HCT116; assay type: cell-based; settings: 6 concentrations tested
Experimental: as §2, §3
Some cell plates were treated with Promega Cell titer Aqueous 1 kit (promega—VWR catalog number G3580). In this case, 48 hours after the test compound were added, 100 μl of media were removed and 20 μl of cell titer reagent were added to all wells. Plates were incubated at 37° C. for 45 minutes prior to absorbance reads on the Wallac plate reader at 490 nm for 0.1 sec/well.

Chain of E3 (His-APC11/APC2-"APC") (Q9NYG5 whole entry): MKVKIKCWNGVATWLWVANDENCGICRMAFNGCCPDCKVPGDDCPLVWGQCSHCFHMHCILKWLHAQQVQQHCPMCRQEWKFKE
Chain of E3 (His-APC11/APC2-"APC") (Q9UJX6 whole entry): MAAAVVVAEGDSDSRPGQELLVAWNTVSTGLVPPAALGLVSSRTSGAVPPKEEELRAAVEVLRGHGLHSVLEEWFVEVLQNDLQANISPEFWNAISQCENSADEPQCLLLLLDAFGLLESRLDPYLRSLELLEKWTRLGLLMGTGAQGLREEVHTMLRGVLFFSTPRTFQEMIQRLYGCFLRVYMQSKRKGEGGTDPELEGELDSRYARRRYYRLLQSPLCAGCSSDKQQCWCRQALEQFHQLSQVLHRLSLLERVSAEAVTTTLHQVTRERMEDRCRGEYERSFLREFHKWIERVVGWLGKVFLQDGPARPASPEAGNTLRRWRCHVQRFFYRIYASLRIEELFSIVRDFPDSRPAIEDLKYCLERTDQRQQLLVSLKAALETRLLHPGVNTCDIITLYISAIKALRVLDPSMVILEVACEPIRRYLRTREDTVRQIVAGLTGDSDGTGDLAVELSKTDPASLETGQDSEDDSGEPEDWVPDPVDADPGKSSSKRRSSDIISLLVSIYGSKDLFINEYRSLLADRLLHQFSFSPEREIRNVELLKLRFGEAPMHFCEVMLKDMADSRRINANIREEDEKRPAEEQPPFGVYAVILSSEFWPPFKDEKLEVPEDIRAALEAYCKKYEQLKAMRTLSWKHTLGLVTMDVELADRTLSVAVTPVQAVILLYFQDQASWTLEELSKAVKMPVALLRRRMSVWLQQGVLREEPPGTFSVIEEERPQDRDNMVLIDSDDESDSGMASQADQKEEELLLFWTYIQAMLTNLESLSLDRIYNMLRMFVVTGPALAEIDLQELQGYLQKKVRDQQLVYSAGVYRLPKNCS
Chain of MDM2 / p53 substrate (Q00987 whole entry): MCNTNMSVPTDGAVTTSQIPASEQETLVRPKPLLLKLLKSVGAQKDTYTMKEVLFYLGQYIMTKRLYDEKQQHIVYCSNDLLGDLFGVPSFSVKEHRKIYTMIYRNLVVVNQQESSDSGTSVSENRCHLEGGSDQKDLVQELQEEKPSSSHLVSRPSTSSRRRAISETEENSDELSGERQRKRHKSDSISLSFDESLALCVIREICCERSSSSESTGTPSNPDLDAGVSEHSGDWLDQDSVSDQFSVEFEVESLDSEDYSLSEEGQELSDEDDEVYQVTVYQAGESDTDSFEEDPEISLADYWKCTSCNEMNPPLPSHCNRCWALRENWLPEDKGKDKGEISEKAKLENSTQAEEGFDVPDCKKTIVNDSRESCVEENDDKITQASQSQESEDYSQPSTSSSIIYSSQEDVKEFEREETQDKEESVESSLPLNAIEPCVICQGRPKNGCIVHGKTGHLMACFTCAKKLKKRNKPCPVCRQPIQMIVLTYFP

O=[N+]([O-])c1ccc(Oc2c(Cl)cc(S(=O)(=O)Nc3ccc(Cl)c(Cl)c3)cc2Cl)c(Cl)c1 [Compound 167, 3,5-dichloro-4-(2-chloro-4-nitrophenoxy)-N-(3,4-dichlorophenyl)benzenesulfonamide]
+: APC Flag 8 pt [1] | PAD Assay, A549 6 pt (A549 cells [2]) | PAD Assay, HELA 6 pt (HeLa cells [3]) | PAD Assay, H1299 6 pt (H1299 cells) | Cell Titer-Aqueous, A549 6 pt (A549 cells [4]) | Cell Titer-Aqueous, HELA 6 pt (HeLa cells [5])

O=[N+]([O-])c1ccc(Oc2c(Cl)cc(S(=O)(=O)Nc3cc(C(F)(F)F)ccc3Cl)cc2Cl)c(Cl)c1 [Compound 243, 3,5-dichloro-4-(2-chloro-4-nitrophenoxy)-N-(2-chloro-5-(trifluoromethyl)phenyl]benzenesulfonamide]
+: APC Flag 8 pt [1] | PAD Assay, A549 6 pt (A549 cells [2]) | PAD Assay, HELA 6 pt (HeLa cells [3]) | PAD Assay, HCT116 6 pt (HCT116 cells [6]) | PAD Assay, H1299 6 pt (H1299 cells)

O=S(=O)(Nc1cc(Cl)ccc1C(F)(F)F)c1cc(Cl)c(Oc2ccc(Cl)cc2Cl)c(Cl)c1 [Compound 249, 3,5-dichloro-N-[5-chloro-2-(trifluoromethyl)phenyl]-4-(2,4-dichlorophenoxy) benzenesulfonamide]
+: APC Flag 8 pt [1] | PAD Assay, A549 6 pt (A549 cells [2]) | PAD Assay, HELA 6 pt (HeLa cells [3]) | PAD Assay, H1299 6 pt (H1299 cells)

O=S(=O)(Nc1cc(C(F)(F)F)ccc1Cl)c1ccc(Oc2ncc(C(F)(F)F)cc2Cl)cc1 [Compound 254, N-[2-chloro-5-(trifluoromethyl)phenyl]-4-{[3-chloro-5-(trifluoromethyl)pyridin-2-yl]oxy}benzenesulfonamide]
+: APC Flag 8 pt [1] | PAD Assay, A549 6 pt (A549 cells [2]) | PAD Assay, HELA 6 pt (HeLa cells [3]) | PAD Assay, HCT116 6 pt (HCT116 cells [6]) | PAD Assay, H1299 6 pt (H1299 cells)

O=[N+]([O-])c1ccc(Oc2ccc(S(=O)(=O)Nc3cc(C(F)(F)F)ccc3Cl)cc2Cl)c(C(F)(F)F)c1 [Compound 264]
+: APC Flag 8 pt [1] | PAD Assay, A549 6 pt (A549 cells [2]) | PAD Assay, HELA 6 pt (HeLa cells [3]) | PAD Assay, H1299 6 pt (H1299 cells)

O=[N+]([O-])c1ccc(Oc2c(Cl)cc(S(=O)(=O)Nc3ccc(F)cc3)cc2Cl)c(Cl)c1 [Example 23, 3,5-dichloro-4-(2-chloro-4-nitrophenoxy)-N-(4-fluorophenyl)benzenesulfonamide]
−: MDM2-P53 Flag 8 pt (MDM2 / p53 substrate)
+: APC Flag 8 pt [1] | PAD Assay, A549 6 pt (A549 cells [2]) | PAD Assay, HELA 6 pt (HeLa cells [3]) | Cell Titer-Aqueous, A549 6 pt (A549 cells [4]) | Cell Titer-Aqueous, HELA 6 pt (HeLa cells [5]) | Cell Titer-Aqueous, HCT116 6 pt (HCT116 cells [7])

O=C(NCC1CC1)c1ccccc1NS(=O)(=O)c1cc(Cl)c(Oc2ccc([N+](=O)[O-])cc2Cl)c(Cl)c1 [Example 123, N-(cyclopropylmethyl)-2-({[3,5-dichloro-4-(2-chloro-4-nitrophenoxy)phenyl]sulfonyl}amino)benzamide]
+: APC Flag 8 pt [1] | PAD Assay, A549 6 pt (A549 cells [2]) | PAD Assay, HELA 6 pt (HeLa cells [3]) | Cell Titer-Aqueous, A549 6 pt (A549 cells [4]) | Cell Titer-Aqueous, HELA 6 pt (HeLa cells [5]) | Cell Titer-Aqueous, HCT116 6 pt (HCT116 cells [7])
−: MDM2-P53 Flag 8 pt (MDM2 / p53 substrate)

O=[N+]([O-])c1ccc(Oc2c(Cl)cc(S(=O)(=O)Nc3cc(F)ccc3C(F)(F)F)cc2Cl)c(Cl)c1 [Example 235, 3,5-dichloro-4-(2-chloro-4-nitrophenoxy)-N-[5-fluoro-2-(trifluoromethyl)phenyl] benzenesulfonamide]
+: APC Flag 8 pt [1] | PAD Assay, A549 6 pt (A549 cells [2]) | PAD Assay, HELA 6 pt (HeLa cells [3]) | PAD Assay, H1299 6 pt (H1299 cells)

O=S(=O)(Nc1cc(Cl)ccc1Cl)c1ccc(Oc2ncc(C(F)(F)F)cc2Cl)cc1 [Example 253, 4-{[3-chloro-5-(trifluoromethyl)pyridin-2-yl]oxy}-N-(2,5-dichlorophenyl)benzene-sulfonamide]
+: APC Flag 8 pt [1] | PAD Assay, A549 6 pt (A549 cells [2]) | PAD Assay, HELA 6 pt (HeLa cells [3]) | PAD Assay, HCT116 6 pt (HCT116 cells [6]) | PAD Assay, H1299 6 pt (H1299 cells)
